Measured values as given in patent publication US20240376087A1, “PYRAZOLE AMIDE BASED COMPOUNDS AND USES AGAINST BREAST CANCER THEREOF” (COUNCIL OF SCIENTIFIC AND INDUSTRIAL RESEARCH AN INDIAN …, priority 2021, published 2024).
“Also recorded” adds a separate entry of the source.

Columns and labels:
[1] = test system: EGFR; test: EGFR expression studies (immunofluorescence); format: cell-based, human; conditions: fluorescent images
Description: The expression of EGFR after treatment with NIIST-AC-1 was evaluated using indirect immunofluorescence. The cells after treatment were fixed with paraformaldehyde and incubated with primary antibody overnight. After washing the primary antibody, the cells were treated with alexa fluor conjugated secondary antibody for visualization. The cells were counterstained with DAPI for nuclear staining and were observed under a fluorescent microscope (IX83 inverted microscope; Olympus Life Science, cell Sens Dimension ver 3.1 software).

[2] = test system: MDA MB 231 cells; test: Growth inhibitory study of I-8 in combination with paclitaxel; format: cell-based, human; conditions: 5 μM I-8 in combination with paclitaxel
[3] = test system: MDA MB 231 cells; test: Colony formation assay; format: cell-based, human; conditions: 48 hr pretreatment, 14 days
Description: The pretreated cells with different concentrations of NIIST-AC-1 for 48 hr were plated in six well plates and allowed to grow and colonize for 14 days. The colonies were stained with crystal violet for 2 hr after fixing with acetic acid and methanol. The visible colonies were photographed and the colon area was quantified using ImageJ 1.52p software.

[4] = test system: MDA MB 231 cells; test: Wound healing (scratch wound) assay; format: cell-based, human; conditions: 24 hr
Description: Wound healing assay was performed to understand the antimigration effects of NIIST-AC-1. The confluent monolayers of cells after making the scratch were treated with the test compounds at different concentrations for 24 hr. After the time interval, the wound closure by the migration of the cells was observed under the phase-contrast microscope (Nikon Eclipse TS100), and images were captured using NIS-Elements 3.21.00 imaging software at different time points (0, 24 h) at 4× magnification. The wound area was quantified using ImageJ 1.52p software.

[5] = test system: caspase-9; test: Assay of caspase 9 (fluorometric, cell lysates); format: cell-based, human; conditions: MDA MB 231 cell lysates, LEHD-AFC
Description: The activities of the initiator caspase-9 and downstream executioner caspase-3 were measured using Fluorometric Assay Kit. The caspase activity in the cell lysates of control and treated cells were measured by using the fluorescent substrate DEVD-AFC (for caspase-3 activity) and LEHD-AFC (for caspase-9 activity). Samples were read at 400-nm excitation filter and 505-nm emission filter in a fluorescent microplate reader (BioTek Synergy HT) using Gen5™ ver 1.05.11 software, and the results were expressed as relative units in terms of fluorescence.

[6] = test system: normal human lung fibroblast cells (WI 30); test: Toxicity in normal fibroblast cells (phase contrast images); format: cell-based; conditions: normal fibroblast cells (WI30), FIG. 3
Description: The cells used for the study, human breast adenocarcinoma (MDA-MB-231) and normal human lung fibroblast cells ([…]) were procured from NCCS, Pune, India, and ATCC, VA, USA, respectively. Cells were maintained in standard culture conditions in DMEM supplemented with 10% FBS and 100 units/ml penicillin/streptomycin under 5% CO2 at 37° C. in a humidified incubator. After 2-3 passages, the cells were seeded on cell culture dishes and were used for different experiments.
(§1) Morphological analysis of the cells treated with NIIST-AC-1 at different concentrations were monitored using phase contrast microscope Nikon EclipseTS100 (Nikon Instruments Inc., Melville, NY, USA, Magnification 20×) and SEM (Zeiss EVO 18 Special Edition) at ×2k and ×5k magnification.

[7] = test system: MDA MB 231 cells; test: Morphological analysis by phase contrast and electron microscopy; format: cell-based, human; conditions: MDA MB 231, phase contrast and SEM
Excerpt: as §1

[8] = test system: MDA MB 231 cells; test: Anoikis assay; format: cell-based, human; conditions: MDA MB 231, anoikis chamber, 48 hrs
Description: The effect of NIIST-AC-1 on anoikis resistance was analyzed using Anoikis Assay Kit by following the manufacturer's protocol. The cells were seeded in ultralow attachment plate 9anoikis chamber) after pretreating with different concentrations of NIIST-AC-1. After 48 hrs, the cells were observed under the phase-contrast microscope (Nikon Eclipse TS100) for observing the attachment and images were captured using NIS-Elements 3.21.00 imaging software. The viability of the cells was also measured by MTT assay.

[9] = test system: histone deacetylase 1 (HDAC-1); test: HDAC inhibition assay (colorimetric, cell lysates); format: biochemical, human; conditions: enzyme assay, MDA MB 231 cell lysates
Description: The histone deacetylase inhibitory activity was measured in the cell lysates using the colorimetric assay kit where we have used the substrate Ac-Lys (Ac)-pNA and trichostatin A as the positive control. After the reaction, the absorbance was measured at 400 nm and the percentage inhibition was calculated by comparing with the deacetylated standard Ac-Lys-pNA.

[10] = test system: MDA MB 231 cells; test: Phosphatidyl serine translocation by annexin V staining; format: cell-based, human; conditions: MDA MB 231, annexin V staining, 24 hrs
Description: The translocation of phosphatidyl serine to the outer leaflet of plasma membrane during apoptosis was studied by Annexin V-Cy3™ Apoptosis Detection Kit. After treatment with different concentrations of NIIST-AC-1 for 24 hrs, the cells were washed and stained with annexin V for 10 min. After the staining solution was removed, the binding buffer was added and the cells observed under a spinning disc fluorescent microscope (BD Biosciences), and images were taken using the software BD Atto Vision version 1.6.

[11] = test system: MDA MB 231 cells; test: Nuclear fragmentation by DAPI staining; format: cell-based, human; conditions: MDA MB 231, DAPI staining, 24 hr
Description: Fragmentation of the nucleus on treatment with NIIST-AC-1 was analyzed using the cell permeable dye which binds to AT rich sequences in the minor groove of DNA. After treatment in 96 well culture plates for 24 hr, the cells were stained with DAPI for 20 min. The morphology of the stained nucleus was observed using a spinning disc fluorescent microscope at an excitation/emission of 360/460 nm (BD Pathway™ 855; Biosciences), and images were taken using the software BD Atto Vision™ version 1.6.

[12] = test system: MDA MB 231 cells; test: Measurement of intracellular reactive oxygen species (FACS); format: cell-based, human; conditions: MDA MB 231, CM-H2DCFDA
Description: The upregulation of ROS upon treatment with NIIST-AC-1 was analyzed using the fluorescent probe CM-H2DCFDA (Sigma). After treatment, the cells were incubated DMEM containing CM-H2DCFDA at a final concentration of 5 μM at 37° C. for 30 min. The trypsinised cells were then suspended in PBA and analyzed using FACS (BD FACSAria II (BD Biosciences) at fluorescein isothiocyanate (FITC) range (excitation 495 nm, emission 529 nm bandpass filter). The mean fluorescence intensities of different groups were analyzed by BD FACSDiva ver 6.1.3 software and corrected for autofluorescence from unlabeled cells.

COc1cc(-c2cc(C(=O)NCc3cc(C(F)(F)F)cc(C(F)(F)F)c3)[nH]n2)cc(OC)c1OC [I-8, N-(3,5-bis(trifluoromethyl)benzyl)-3-(3,4,5-trimethoxyphenyl)-1H-pyrazole-5-carboxamide]
EGFR expression [1]: reduction in EGFR expression | lowering of paclitaxel concentration required for 50% growth inhibition [2]: 10 times | colony formation [3]: inhibition of colony formation | cell migration [4]: cell migration inhibition was evident | caspase 9 activity [5]: upregulated caspase activity | cytotoxicity in normal fibroblasts [6]: without having cytotoxicity; also recorded: no toxic | morphological changes of the cells [7]: significant morphological changes | detachment induced cell death (anoikis) [8]: induced detachment induced cell death (anoikis) | HDAC inhibitory activity [9]: significant inhibition; also recorded: substantial histone deacetylase 1 (HDAC-1) inhibitory activity | phosphatidyl serine translocation [10]: phosphatidyl serine translocation | nuclear fragmentation [11]: significant nuclear fragmentation | ROS generation [12]: significant generation of ROS
